Experiment [1] addresses puromycin-sensitive aminopeptidase (PSA, EC 3.4.11.14). As to conditions: cited from earlier work.
Experiment [2] has as its target aminopeptidase N (APN, EC 3.4.11.2). As to conditions: cited from earlier work.
Experiment [3] has as its system ectopeptidases in whole OHSCs. As to conditions: EO sampling; cited from earlier work.
In experiment [4] the target is T1, membrane-bound aminopeptidase activity in the CA1 (Rattus norvegicus, UniProt P15684).
T1 sequence (P15684 2-965): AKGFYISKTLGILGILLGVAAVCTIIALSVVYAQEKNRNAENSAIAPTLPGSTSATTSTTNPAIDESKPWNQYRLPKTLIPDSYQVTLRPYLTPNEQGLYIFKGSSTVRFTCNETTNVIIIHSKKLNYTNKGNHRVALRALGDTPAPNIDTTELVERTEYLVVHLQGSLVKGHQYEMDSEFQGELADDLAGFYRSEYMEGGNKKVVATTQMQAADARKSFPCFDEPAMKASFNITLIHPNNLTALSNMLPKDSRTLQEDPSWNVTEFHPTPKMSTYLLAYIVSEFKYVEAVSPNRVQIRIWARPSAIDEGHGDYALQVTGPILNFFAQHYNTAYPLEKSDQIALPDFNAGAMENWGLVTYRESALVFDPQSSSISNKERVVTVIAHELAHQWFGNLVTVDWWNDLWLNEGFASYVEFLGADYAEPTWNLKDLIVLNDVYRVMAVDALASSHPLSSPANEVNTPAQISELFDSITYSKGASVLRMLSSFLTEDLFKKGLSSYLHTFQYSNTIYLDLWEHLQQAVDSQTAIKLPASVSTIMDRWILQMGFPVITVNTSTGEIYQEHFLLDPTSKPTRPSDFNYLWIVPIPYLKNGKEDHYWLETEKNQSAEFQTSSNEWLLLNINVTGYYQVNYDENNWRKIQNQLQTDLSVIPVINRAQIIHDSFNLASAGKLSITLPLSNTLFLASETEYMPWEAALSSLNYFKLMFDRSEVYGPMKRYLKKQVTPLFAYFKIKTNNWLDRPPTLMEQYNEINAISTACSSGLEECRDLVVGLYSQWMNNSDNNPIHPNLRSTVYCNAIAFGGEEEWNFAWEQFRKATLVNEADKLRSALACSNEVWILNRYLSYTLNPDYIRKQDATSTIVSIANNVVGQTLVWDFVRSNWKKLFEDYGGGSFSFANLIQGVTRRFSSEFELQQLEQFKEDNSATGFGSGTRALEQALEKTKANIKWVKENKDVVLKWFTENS
The experiment is classed as biochemical.

The target of experiment [5] is T2, membrane-bound aminopeptidase activity in the CA3 (Rattus norvegicus, UniProt P15684).
T2 sequence (P15684 2-965): T1 sequence (P15684 2-965)
The experiment is classed as biochemical.

The values below come from article PMC5862982 (ACS chemical neuroscience, 2017).

Consider `COc1ccc(C[C@H](N)C(=O)N[C@H]2[C@@H](O)[C@H](n3cnc4c(N(C)C)ncnc43)O[C@@H]2CO)cc1` [puromycin], for which the Ki in experiment [1] was 1 µM; in experiment [2], 100 µM. Besides, the “effect on hydrolysis of exogenously applied YGGFL” value in experiment [3] is “little to no effect”.
For the compound `CC(C)C[C@H](NC(=O)[C@@H](O)[C@H](N)Cc1ccccc1)C(=O)O` [bestatin], the figures for the inhibition constant (Ki) in experiment [1], in experiment [4] and in experiment [5] were 0.5 µM, 12 ± 9 µM and 11 ± 7 µM, respectively.

A word on the Ki: it is the dissociation constant of the complex between target and ligand, obtained from inhibition or displacement.
